Experimental data from patent US9657013B2, “Inhibitors of hepatitis B virus covalently closed circular DNA formation and their method of use” (priority 2012, dated 2017).

Experiments:
[1] = cytotoxicity assay (MTT, CC50); assay type: cell-based; details: human, HepDE19 cells
Protocol: (§1) Cell plates were then incubated with compound dilutions and controls as described above, and addition of 3-[4,5-dimethylthiazol-2-yl]-2,5-diphenyltetrazolium bromide (MTT, Sigma-Aldrich) was added to a final concentration of 0.5 mg/ml (Mosmann, T. 1983). Plates were again incubated at 37° C. for 4 hrs, after which 10% SDS/0.01N HCl was added to each well in a volume equal to the medium (100 μl), followed by overnight incubation. Absorbance was read in the Rainbow spectrophotometer (Tecan US Inc., Durham, N.C.) at 570 nm (reference wavelength of 630 nm), and analyzed with XLfit 4.0 as described above.

HepDE19 cells = experiment: cytotoxicity assay (MTT, CC50); assay type: cell-based
Protocol: as §1

| SMILES | CC50 [1] | CC50 (HepDE19 cells) |
| --- | --- | --- |
| Cc1nc2cc(NC(=O)c3ccc(S(=O)(=O)N(C)Cc4ccccc4)cc3)ccc2s1 [CCC-0346, 4-(Benzyl-methyl-sulfamoyl)-N-(2-methyl-benzothiazol-5-yl)-benzamide] | 3000 nM |  |
| O=C(CN(c1cc(C(F)(F)F)ccc1Cl)S(=O)(=O)c1ccccc1)NCc1ccncc1 [CCC-0975, 2-[Benzenesulfonyl-(2-chloro-5-trifluoromethyl-phenyl)-amino]-N-pyridin-4-ylmethyl-acetamide] |  | > 50000 nM |
